In article PMC4872591, “An evaluation of Minor Groove Binders as anti-Trypanosoma brucei brucei therapeutics” (European Journal of Medicinal Chemistry, 2016):
Read-outs that look alike come from different tables or passages of the source.

Test system: Bloodstream form T. b. brucei (Lister 427)
Assay: Trypanosoma brucei brucei Alamar Blue assay
Type: cell-based
Procedure: IC50 values against trypanosomes were determined by Alamar Blue assay. […] After this time, 20 μL of resazurin dye (Sigma–Aldrich) solution at 0.49 mM was added. […] Output was plotted using the IC50 determination algorithm of Prism 5.0 software (GraphPad). Three independent experiments were carried out in duplicate for each compound.

[1] = Table 1, Alamar Blue, 48 h + 24 h, all standard deviations less than 2%, read-out: IC50 against Trypanosoma brucei brucei
[2] = Trypanosoma brucei, Table 1, Alamar Blue, 48 h + 24 h, all standard deviations less than 2%, read-out: IC50 against Trypanosoma brucei brucei
[3] = Trypanosoma brucei, values in μM, read-out: IC50 against T. b. brucei
[4] = Trypanosoma brucei, Table S2 (supplement), T. b. brucei activity, read-out: IC50

Compound | IC50 [2] | IC50 [4] | further results
2-{[(4-{[(4-{[Imino(4-methoxy-2-pyridinyl)methyl]amino}-1-methyl-1H-pyrrol-2-yl)carbonyl]amino}-1-methyl-1H-pyrrol-2-yl)carbonyl]amino}-5-isopropyl-N-[2-(4-morpholinyl)ethyl]-1,3-thiazole-4-carboxamide [Compound 5] |  |  | IC50 [1]: > 75 µM; IC50 (values in μM, read-out: IC50 against T. b. brucei): > 75 µM
4-(Formylamino)-1-methyl-N-[1-methyl-5-({[1-methyl-5-({[2-(4-morpholinyl)ethyl]amino}carbonyl)-1H-pyrrol-3-yl]amino}carbonyl)-1H-pyrrol-3-yl]-1H-pyrrole-2-carboxamide [Compound 4] |  |  | IC50 [1]: 48 µM
CN(C)CCCNC(=O)c1cc(NC(=O)c2cc(NC(=O)c3cc(NC(=N)c4ccccc4)cn3C)cn2C)cn1C [Compound 1, N-[5-({[5-({[3-(Dimethylamino)propyl]amino}carbonyl)-1-methyl-1H-pyrrol-3-yl]amino}carbonyl)-1-methyl-1H-pyrrol-3-yl]-4-{[imino(phenyl)methyl]amino}-1-methyl-1H-pyrrole-2-carboxamide] | > 75 µM |  | IC50 [3]: > 75 µM
CC(=N)Nc1cc(C(=O)Nc2cc(C(=O)Nc3cc(C(=O)NCCCN(C)C)n(C)c3)n(C)c2)n(C)c1 [Compound 2, N-[5-({[5-({[3-(Dimethylamino)propyl]amino}carbonyl)-1-methyl-1H-pyrrol-3-yl]amino}carbonyl)-1-methyl-1H-pyrrol-3-yl]-4-(ethanimidoylamino)-1-methyl-1H-pyrrole-2-carboxamide] | > 75 µM |  | IC50 [3]: > 75 µM
Cn1cc(NC(=O)c2cc(NC(=O)c3cc(NC(=O)c4ccc(Cl)cc4Cl)cn3C)cn2C)cc1C(=O)NCCN1CCOCC1 [Compound 3, 4-[(2,4-Dichlorobenzoyl)amino]-1-methyl-N-[1-methyl-5-({[1-methyl-5-({[2-(4-morpholinyl)ethyl]amino}carbonyl)-1H-pyrrol-3-yl]amino}carbonyl)-1H-pyrrol-3-yl]-1H-pyrrole-2-carboxamide] | 0.4 µM |  | 
CC(C)n1cc(NC(=O)c2cc(NC(=O)c3cnc(Cl)c(Cl)c3)cn2C)cc1C(=O)Nc1cc(C(=O)NCCCN(C)C)n(C)c1 [Compound 6, 5,6-Dichloro-N-[5-({[5-({[5-({[3-(dimethylamino)propyl]amino}carbonyl)-1-methyl-1H-pyrrol-3-yl]amino}carbonyl)-1-isopropyl-1H-pyrrol-3-yl]amino}carbonyl)-1-methyl-1H-pyrrol-3-yl]nicotinamide] | 4 µM |  | 
COc1cccc(C(=N)Nc2cc(C(=O)Nc3cc(C(=O)Nc4cc(C(=O)NCCCN(C)C)n(C)c4)n(C(C)C)c3)n(C)c2)c1 [Compound 7, N-[5-({[5-({[3-(Dimethylamino)propyl]amino}carbonyl)-1-methyl-1H-pyrrol-3-yl]amino}carbonyl)-1-isopropyl-1H-pyrrol-3-yl]-4-{[imino(3-methoxyphenyl)methyl]amino}-1-methyl-1H-pyrrole-2-carboxamide] | 27 µM |  | 
COc1cccc(C(=N)Nc2cc(C(=O)Nc3cc(C(=O)Nc4cc(C(=O)NCCCN5CCOCC5)n(C)c4)n(C)c3)n(C)c2)c1 [Compound 9, 4-{[(4-{[imino(3-methoxyphenyl)methyl]amino}-1-methyl-1H-pyrrol-2-yl)carbonyl]amino}-1-methyl-N-[1-methyl-5-({[3-(4-morpholinyl)propyl]amino}carbonyl)-1H-pyrrol-3-yl]-1H-pyrrole-2-carboxamide] | > 75 µM |  | IC50 [3]: > 75 µM
COc1cccc(/C=C/c2ccc(C(=O)Nc3cc(C(=O)Nc4nc(C(=O)NCCCN(C)C)c(CCC(C)C)s4)n(C)c3)cc2)c1 [Compound 11, N-[3-(dimethylamino)propyl]-5-isopentyl-2-({[4-({4-[(E)-2-(3-methoxyphenyl)ethenyl]benzoyl}amino)-1-methyl-1H-pyrrol-2-yl]carbonyl}amino)-1,3-thiazole-4-carboxamide] | 0.28 µM | 0.3 µM | 
COc1cccc(/C=C/c2cccc(C(=O)Nc3cc(C(=O)Nc4nc(C(=O)NCCCN(C)C)c(CCC(C)C)s4)n(C)c3)c2)c1 [Compound 12, N-[3-(Dimethylamino)propyl]-5-isopentyl-2-({[4-({3-[(E)-2-(3-methoxyphenyl)ethenyl]benzoyl}amino)-1-methyl-1H-pyrrol-2-yl]carbonyl}amino)-1,3-thiazole-4-carboxamide] | 0.18 µM | 0.28 µM | 
CC(C)CCc1sc(NC(=O)c2cc(NC(=O)c3cc(/C=C/c4ccc([N+](=O)[O-])cc4)cn3C)cn2C)nc1C(=O)NCCCN(C)C [Compound 13, N-[3-(dimethylamino)propyl]-5-isopentyl-2-[({1-methyl-4-[({1-methyl-4-[(E)-2-(4-nitrophenyl)ethenyl]-1H-pyrrol-2-yl}carbonyl)amino]-1H-pyrrol-2-yl}carbonyl)amino]-1,3-thiazole-4-carboxamide] | 0.21 µM | 0.18 µM | 
Cn1cc(NC(=O)c2cc(NC(=O)c3cc4ccccc4cn3)cn2C)cc1C(=O)NCCN1CCOCC1 [Compound 14, N-[1-Methyl-5-({[1-methyl-5-({[2-(4-morpholinyl)ethyl]amino}carbonyl)-1H-pyrrol-3-yl]amino}carbonyl)-1H-pyrrol-3-yl]-3-isoquinolinecarboxamide] | 0.97 µM | 0.21 µM | 
CN(C)CCCNC(=O)c1cc(NC(=O)c2cc(NC(=O)c3cc4ccccc4cn3)cn2C)cn1C [Compound 15, N-[5-({[5-({[3-(Dimethylamino)propyl]amino}carbonyl)-1-methyl-1H-pyrrol-3-yl]amino}carbonyl)-1-methyl-1H-pyrrol-3-yl]-3-isoquinolinecarboxamide] | 2.2 µM | 0.97 µM | 
Cn1cc(NC(=O)c2cc(NC(=O)c3ccc(/C=C/c4nc5ccccc5o4)cc3)cn2C)cc1C(=O)NCCN1CCOCC1 [Compound 16, 4-({4-[(E)-2-(1,3-benzoxazol-2-yl)ethenyl]benzoyl}amino)-1-methyl-N-[1-methyl-5-({[2-(4-morpholinyl)ethyl]amino}carbonyl)-1H-pyrrol-3-yl]-1H-pyrrole-2-carboxamide] | 0.79 µM | 2.2 µM | 
CN(C)CCCNC(=O)c1cc(NC(=O)c2cc(NC(=O)c3cc(NC(=N)c4cc5ccccc5cn4)cn3C)cn2C)cn1C [Compound 17, N-[5-({[3-(dimethylamino)propyl]amino}carbonyl)-1-methyl-1H-pyrrol-3-yl]-4-{[(4-{[imino(3-isoquinolinyl)methyl]amino}-1-methyl-1H-pyrrol-2-yl)carbonyl]amino}-1-methyl-1H-pyrrole-2-carboxamide] | 4.9 µM |  | 
CC(C)CCc1sc(NC(=O)c2cc(NC(=O)c3cc4ccccc4cn3)cn2C)nc1C(=O)NCCCN(C)C [Compound 18, N-[5-({[4-({[3-(Dimethylamino)propyl]amino}carbonyl)-5-isopentyl-1,3-thiazol-2-yl]amino}carbonyl)-1-methyl-1H-pyrrol-3-yl]-3-isoquinolinecarboxamide] | 0.39 µM |  | 
Cn1cc(NC(=O)c2cc(NC(=O)c3ccc(/C=C/c4ccc(C(F)(F)F)cc4)cc3)cn2C)cc1C(=O)NCCN1CCOCC1 [Compound 22, 1-methyl-N-[1-methyl-5-({[2-(4-morpholinyl)ethyl]amino}carbonyl)-1H-pyrrol-3-yl]-4-[(4-{(E)-2-[4-(trifluoromethyl)phenyl]ethenyl}benzoyl)amino]-1H-pyrrole-2-carboxamide] | 0.73 µM |  | 
CC(C)CCc1sc(NC(=O)c2cc(NC(=O)c3ccc(/C=C/c4ccc5ccccc5n4)cc3)cn2C)nc1C(=O)NCCN1CCOCC1 [Compound 23, 5-isopentyl-2-({[1-methyl-4-({4-[(E)-2-(2-quinolinyl)ethenyl]benzoyl}amino)-1H-pyrrol-2-yl]carbonyl}amino)-N-[2-(4-morpholinyl)ethyl]-1,3-thiazole-4-carboxamide] | 0.62 µM |  | 
Cn1cc(NC(=O)c2cc(NC(=O)c3ccc(/C=C/c4ccncc4)cc3)cn2C)cc1C(=O)NCCN1CCOCC1 [Compound 24, 1-Methyl-N-[1-methyl-5-({[2-(4-morpholinyl)ethyl]amino}carbonyl)-1H-pyrrol-3-yl]-4-({4-[(E)-2-(4-pyridinyl)ethenyl]benzoyl}amino)-1H-pyrrole-2-carboxamide] | 0.38 µM |  | 
Cn1cc(NC(=O)c2cc(NC(=O)c3cc(NC(=O)c4ccc(Cl)cc4Cl)cn3C)cn2C)cc1C(=O)NCCCN1CCOCC1 [Compound 25, 4-[(2,4-Dichlorobenzoyl)amino]-1-methyl-N-[1-methyl-5-({[1-methyl-5-({[3-(4-morpholinyl)propyl]amino}carbonyl)-1H-pyrrol-3-yl]amino}carbonyl)-1H-pyrrol-3-yl]-1H-pyrrole-2-carboxamide] | 2.3 µM | 0.79 µM | 
Cn1cc(NC(=O)c2cc(NC(=O)c3ccc(/C=C/c4ccc(F)cc4)cc3)cn2C)cc1C(=O)NCCN1CCOCC1 [Compound 26, 4-({4-[(E)-2-(4-fluorophenyl)ethenyl]benzoyl}amino)-1-methyl-N-[1-methyl-5-({[2-(4-morpholinyl)ethyl]amino}carbonyl)-1H-pyrrol-3-yl]-1H-pyrrole-2-carboxamide] | 0.71 µM |  | 
Cn1cc(NC(=O)c2cc(NC(=O)c3ccc(/C=C/c4cccc(F)c4)cc3)cn2C)cc1C(=O)NCCN1CCOCC1 [Compound 27, 4-({4-[(E)-2-(3-fluorophenyl)ethenyl]benzoyl}amino)-1-methyl-N-[1-methyl-5-({[2-(4-morpholinyl)ethyl]amino}carbonyl)-1H-pyrrol-3-yl]-1H-pyrrole-2-carboxamide] | 0.22 µM |  | 
COc1ccc(/C=C/c2ccc3cc(C(=O)Nc4cc(C(=O)Nc5cc(C(=O)NCCN6CCOCC6)n(C)c5)n(C)c4)ccc3n2)cc1 [Compound 30, 2-[(E)-2-(4-Methoxyphenyl)ethenyl]-N-[1-methyl-5-({[1-methyl-5-({[2-(4-morpholinyl)ethyl]amino}carbonyl)-1H-pyrrol-3-yl]amino}carbonyl)-1H-pyrrol-3-yl]-6-quinolinecarboxamide] | 0.63 µM |  | 
